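Briefly, cells in 96-well plates were exposed to five compound concentrations for 48 h, and endpoints were estimated by linear interpolation. GI50 marks 50% less growth. TGI denotes the concentration required for complete inhibition of growth.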
Legend:
Assay in all cases: DTP human tumour cell line panel, 48 h
SF-539 CNS = system: SF-539 CNS
HOP-92 NSCLC = system: HOP-92 NSCLC
SK-OV-3 ovarian = system: SK-OV-3 ovarian
NCI-H23 lung = system: NCI-H23 lung
NCI/ADR-RES ovarian = system: NCI/ADR-RES ovarian
SK-MEL-2 melanoma = system: SK-MEL-2 melanoma
SK-MEL-28 melanoma = system: SK-MEL-28 melanoma
HCC-2998 colon = system: HCC-2998 colon
BT-549 breast = system: BT-549 breast
U251 CNS = system: U251 CNS

| Structure (SMILES) | TGI (SF-539 CNS) [µM] | TGI (HOP-92 NSCLC) [µM] | TGI (SK-OV-3 ovarian) [µM] | TGI (NCI-H23 lung) [µM] | TGI (NCI/ADR-RES ovarian) [µM] | TGI (SK-MEL-2 melanoma) [µM] | TGI (SK-MEL-28 melanoma) [µM] | TGI (HCC-2998 colon) [µM] | TGI (BT-549 breast) [µM] | TGI (U251 CNS) [µM] | GI50 (SF-539 CNS) [µM] | GI50 (HOP-92 NSCLC) [µM] | GI50 (SK-OV-3 ovarian) [µM] | GI50 (NCI-H23 lung) [µM] | GI50 (SK-MEL-2 melanoma) [µM] | GI50 (SK-MEL-28 melanoma) [µM] | GI50 (HCC-2998 colon) [µM] | GI50 (BT-549 breast) [µM] | GI50 (U251 CNS) [µM] | GI50 (NCI/ADR-RES ovarian) [µM] |
| --- | --- | --- | --- | --- | --- | --- | --- | --- | --- | --- | --- | --- | --- | --- | --- | --- | --- | --- | --- | --- |
| O=C(c1c(F)c(F)c(F)c(F)c1F)c1c(F)c(F)c(F)c(F)c1F | 2.69 | 3.43 | 5.57 | 7.87 | 14.5 | 7.02 | 7.92 | 3.47 | 6.68 | 2.41 | – | – | – | – | – | – | – | – | – | – |
| Cc1ccc(OP(=O)(Oc2ccc(C)cc2)N2C=Cc3ccccc3C2C#N)cc1 (centres undefined) | > 100 | > 100 | > 100 | > 100 | > 100 | > 100 | > 100 | – | > 100 | > 100 | – | – | – | – | – | – | – | – | – | – |
| COc1cc(-n2ccnc2-c2ccc3ccccc3c2)cc(OC)c1OC | 2.06 | 28.9 | 24.7 | 13.4 | 0.472 | 26.9 | 38.3 | 0.199 | 14.9 | 21.5 | 0.099 | 3.72 | 0.13 | 0.223 | 0.19 | 0.688 | < 0.0318 | 0.246 | 0.0907 | – |
| O=C1c2c(c(=O)[nH]c3ccccc23)[C@H](c2ccccc2)[C@@H]2CCCN12 | 6.7 | 15.7 | 80 | 37.9 | 36.4 | 46.7 | 32.9 | 69.6 | 55.2 | 18.3 | 2.6 | 2.94 | 9.56 | 2.77 | 4.17 | 3.69 | 10.9 | 4.84 | 3.37 | 3.05 |
| O=C(O)c1cccc(S(=O)(=O)NCCO)c1 | > 100 | > 100 | > 100 | > 100 | > 100 | > 100 | > 100 | – | > 100 | > 100 | – | – | – | – | – | – | – | – | – | – |
| CN1C(=O)CCC(N2C(=O)c3cccc(NCCOCCOCCNC(=O)c4cc5c(o4)C(=O)c4ccccc4C5=O)c3C2=O)C1=O (centres undefined) | 3.02 | 13.6 | 12.4 | – | 36.5 | 6.49 | 4.27 | 3.96 | 2.7 | 6.1 | 1.63 | 3.71 | 3.84 | – | 2.2 | 2.04 | 1.99 | 1.38 | 2.4 | 6.3 |
| C(=N\Nc1ncc(-c2cc3cc4c(cc3o2)OCO4)s1)/c1ccco1 | 3.96 | 8.98 | – | 4.22 | > 100 | 11.3 | 12.3 | 12.9 | 15.2 | 14.5 | 1.58 | 1.94 | – | 1.51 | 3.11 | 3.42 | 3.52 | 3.43 | 2.9 | 2.21 |
| CC1=C([Te]c2ccccc2)C(=O)c2ccccc2C1=O | 1.03 | 1.39 | 1.28 | 1.05 | 2.63 | 5.58 | 3.11 | 1.55 | 0.842 | 1.56 | 0.146 | 0.315 | 0.335 | 0.298 | 2.37 | 1.25 | 0.483 | 0.232 | 0.331 | 0.426 |
| CCOC(=O)c1[nH]c2cc(Cl)ccc2c1[C@@H](C(=O)NC(C)(C)C)N(CC)C(=O)CCCCC#Cc1cccc2c1CN(C1CCC(=O)NC1=O)C2=O (some centres undefined) | 11.7 | < 0.0238 | 16.9 | 21.2 | > 100 | 4.15 | 25.5 | 58 | 4.81 | 18.1 | 1.74 | < 0.01 | 0.694 | 3.93 | 1.47 | 2.29 | 0.225 | < 0.0197 | 1.84 | 1.19 |
| O=C1Nc2c(Cl)cc(Cl)cc2/C1=N/N=C/c1ccco1 | > 100 | > 100 | > 100 | 75.9 | 82.1 | 57.1 | > 100 | > 100 | 60.6 | > 100 | – | – | – | – | – | – | – | – | – | – |
| COc1cc2nc(Nc3cccc(Cl)c3)nc(N)c2cc1OC | 22.8 | 14.6 | 32.7 | 33.2 | 33.9 | 28.5 | 3.78 | 3.57 | 27.8 | 9.96 | 10.2 | 2.59 | 18.1 | 14.2 | 8.28 | 1.93 | 1.89 | 13.5 | 3.08 | 7.61 |
| COc1nc(N)nc2c1ncn2C1CC(O)C(CO)O1 (centres undefined) | > 100 | > 100 | > 100 | > 100 | > 100 | > 100 | > 100 | – | > 100 | > 100 | – | – | – | – | – | – | – | – | – | – |
| Cc1ccc(OCC2CO2)c(Br)c1 (centres undefined) | 29.9 | 36.5 | 58.5 | 76.7 | 33 | – | 85.1 | 34.8 | 0.879 | 32.6 | – | – | – | – | – | – | – | – | – | – |
| CSc1cc([C@@H]2C[C@H]2c2ccc(Cl)cc2)on1 | – | 27.3 | > 100 | 18.1 | 42.4 | 82.3 | 96.7 | 15 | 62 | 32.3 | – | 7.97 | 50.6 | 3.98 | 25.2 | 24.5 | 1.25 | 23.9 | 9.24 | 13.6 |
| CC1SC(c2ccccc2Cl)N(NC(=O)C(O)c2ccccc2)C1=O (centres undefined) | > 100 | > 100 | – | – | > 100 | > 100 | > 100 | > 100 | > 100 | > 100 | > 100 | > 100 | – | – | > 100 | > 100 | > 100 | > 100 | 66.9 | 66 |
| C=CCC1(C(=O)OC)CCC/C(=N\O)C1 (centres undefined) | > 10 | > 10 | > 10 | > 10 | > 10 | – | > 10 | > 10 | > 10 | > 10 | – | – | – | – | – | – | – | – | – | – |

From PubChem BioAssay (NCI)
